Laboratory results from US7060733B2, “Methods for treating pancreatitis with curcumin compounds and inhibitors of reactive oxygen species” (The Regents of the University of California, priority 2002, dated 2006).

What was measured:
NF-κB = experiment: Curcumin and N-acetylcysteine alone and in combination, NF-κB activation in CCK-stimulated acinar cells; assay type: cell-based, rat; settings: 0.1 μM CCK
Experimental: To measure the effects of curcumin compounds and ROS inhibitors, EMSAs and nuclear protein extractions were conducted as provided above. […] EMSAs for NF-κB activation were performed on nuclear proteins extracted from each sample.

NF-κB and AP-1 = settings: antioxidant; cited from earlier work

| Compound | inhibition of NF-κB activation in CCK-stimulated acinar cells (NF-κB; N-acetylcysteine 10 μM alone) | NF-κB activation (NF-κB and AP-1) | inhibition of NF-κB activation in CCK-stimulated acinar cells (NF-κB; curcumin 50 μM with N-acetylcysteine 10 μM) |
| --- | --- | --- | --- |
| CC(=O)N[C@@H](CS)C(=O)O [N-acetylcysteine, reference compound] | very little inhibition | inhibit | – |
| curcumin and N-acetylcysteine | – | – | synergistic effect |
